Data published in patent US20240208945A1, “6-CARBAMATE SUBSTITUTED HETEROARYL RING DERIVATIVES” (MEDSHINE DISCOVERY INC., priority 2021, published 2024).
Structures can show the parent of a compound that is named as a salt.

Legend:
[1] = target: binding of KRAS(G12C) to SOS1 (Homo sapiens (Human), UniProt Q07889); test: KRAS(G12C) and SOS1 binding assay (HTRF); settings: 25° C., 60 minutes
Text: The small molecular compound binds to the catalytic site of SOS1, thus inhibiting the binding of SOS1 to KRAS (G12C). When the binding of fluorescently labeled SOS1 protein to fluorescently labeled KRAS (G12C) protein is inhibited, the emitted fluorescence changes. The ability of small molecules to prevent the binding of SOS1 to KRAS (G12C) can be tested by detecting changes in fluorescence. A homogeneous time-resolved fluorescence (HTRF) binding assay was used to detect the ability of the compounds of the present disclosure to inhibit the binding of SOS1 to KRAS (G12C).
KRAS (G12C) protein was expressed and purified by Wuhan AtaGenix Biotechnology Co., Ltd., SOS1 exchange domin (564-1049) protein (Human recombinant) was purchased from Cytoskeleton, Mab Anti 6HIS-XL665 and Mab Anti GST-Eu cryptate were purchased from Cisbio. Multimode microplate reader Nivo5 was purchased from PerkinElmer.
1× buffer preparation (ready-to-use): Hepes: 5 mM; NaCl: 150 mM; EDTA: 10 mM; Igepal: 0.0025%; KF: 100 mM; DTT: 1 mM; BSA: […];
The test compounds were 5-fold diluted with DMSO using a multi-channel pipette to the 8th concentration, i.e., diluted from 1 mM to 0.064 μM.
The test compound was diluted by gradient with 1× buffer to a working solution with 2% DMSO. 5 μL/well of the working solution was added to corresponding wells, and the corresponding concentration gradient was 20 μM to […]. Duplicate experiment was set. The working solution was centrifuged at 1000 rpm for 1 minute.
A mixed working solution of KRAS(G12C) (200 nM) and Mab Anti GST-Eu cryptate (1 ng/μL) was prepared with 1× buffer, and the mixed working solution was incubated at 25° C. for 5 minutes, and 2.5 μL/well of the mixed working solution was added to the corresponding wells.
A mixed working solution of SOS1 (80 nM) and Mab Anti 6HIS-XL665 ([…]) was prepared with 1× buffer, and 2.5 μL/well of the mixed working solution was added to the corresponding wells. 2.5 μL of Mab Anti 6HIS-XL665 ([…]) diluent was added to blank wells. At this time, the final concentration gradient of the compound was diluted from 10 μM to 0.64 nM, KRAS(G12C) ([…]), MAb Anti GST-Eu cryptate (0.25 ng/μL), SOS1 (20 nM), Mab Anti 6HIS-XL665 (2 g/μL), the reaction system was placed at 25° C. for 60 minutes. After the reaction was completed, the multimode microplate reader was used to read HTRF.
Using the equation (Sample−Min)/(Max−Min)×100% to convert the raw data into inhibition rate, the IC50 value might be obtained by curve fitting with four parameters (obtained by “log (inhibitor) vs. response—Variable slope” mode in GraphPad Prism).

[2] = Pharmacokinetic evaluation in Balb/c mice (IV and oral); type: in vivo; settings: male, mouse, plasma; for Cmax: IV 10 mg/kg and oral 50 mg/kg study, read-out: Peak concentration Cmax; for bioavailability / clearance / half-life / Vd: IV 10 mg/kg; for bioavailability / AUC(0-t): PO 50 mg/kg; for bioavailability: read-out: Bioavailability F; for clearance: read-out: Clearance rate CL; for half-life: read-out: Half life T1/2 (IV) (converted); for Vd: read-out: Volume of distribution at steady state Vdss; for AUC(0-t): read-out: Area under drug-time curve AUC0-last PO
Description: Balb/c mice (male, Beijing Vital River Laboratory Animal Technology Co., Ltd.)
The pharmacokinetic characteristics of the compound in rodents after intravenous injection and oral administration were tested according to the standard protocol. In the experiment, the candidate compound was formulated into clear solutions, and a single intravenous injection and oral administration were given to mice. The vehicle for intravenous injection and oral administration was a mixed vehicle composed of 5% dimethyl sulfoxide, 5% solutol, and 90% water. In this project, four male Balb/c mice were used, and two mice were administered intravenously at a dose of 10 mg/kg. Plasma samples were collected at 0.083, 0.25, 0.5, 1, 2, 4, 8, and 24 hours after administration. The other two mice were administered orally by gavage at a dose of 50 mg/kg. Plasma samples were collected at 0.25, 0.5, 1, 2, 4, 6, 8, 12, and 24 hours after administration. Blood samples were placed on ice after collection and centrifuged to separate plasma within 1 hour (centrifugation conditions: 6000 g, 3 minutes, 2 to 8° C.). Plasma samples were stored in a −80° C. refrigerator before analysis. The plasma concentration was quantitatively analyzed by LC-MS/MS analysis method, and the pharmacokinetic parameters were calculated, such as peak concentration (Cmax), clearance rate (CL), half-life (T1/2), volume of distribution at steady state (Vdss), area under drug-time curve (AUC0-last), bioavailability (F).

p-ERK in DLD-1 cells = test: p-ERK inhibitory activity test in DLD-1 cells (HTRF Phospho-ERK1/2 kit); type: cell-based; settings: Homo sapiens, 1 hour incubation
Description: DLD-1 cells were purchased from Nanjing Cobioer; 1640 medium was purchased from Biological Industries; fetal bovine serum was purchased from Biosera; Advanced Phospho-ERK1/2 (THR202/TYR204) KIT was purchased from Cisbio.
DLD-1 cells were seeded in a transparent 96-well cell culture plate, with 80 μL of cell suspension per well and 8000 DLD-1 cells per well. The cell plate was incubated in a carbon dioxide incubator at 37° C. overnight; • the test compound was diluted to 2 mM with 100% DMSO as the first concentration, and then 5-fold diluted to the 8th concentration with a pipette, that is, diluted from 2 mM to 0.026 μM. 2 μL of compound was added to 78 μL of cell starvation medium. After mixing well, 20 μL of compound solution was taken and added to the corresponding cell plate wells, and the cell plate was put back to the carbon dioxide incubator to continue to incubate for 1 hour; at this time, the concentration of the compound was from 10 μM to 0.128 nM, and the concentration of DMSO was 0.5%; • after the incubation was completed, the cell supernatant was discarded, and 50 μL of cell lysate was added to each well, and incubated at room temperature for 30 minutes with shaking; • Phospho-ERK1/2 Eu Cryptate antibody and Phospho-ERK1/2 d2 antibody were 20-fold diluted using Detection buffer; • 16 μL of cell lysate supernatant per well was put into a new 384 white microplate, then 2 μL of Phospho-ERK1/2 Eu Cryptate antibody diluent and 2 μL of Phospho-ERK1/2 d2 antibody diluent were added thereto and incubated at room temperature for 4 hours; • after the incubation was completed, a multimode microplate reader was used to read HTRF excitation: 320 nm, emission: 615 nm, 665 nm.
Using the equation (Sample−Min)/(Max−Min)*100% to convert the raw data into inhibition rate, the IC50 value might be obtained by curve fitting with four parameters (obtained by “log (inhibitor) vs. response—Variable slope” mode in GraphPad Prism). • Max well: Positive control well reading is 1× lysate • Min well: Negative control well reading is 0.5% DMSO cell well cell lysate

Sequence of binding of KRAS(G12C) to SOS1 (Q07889 564-1049, stated change not applied): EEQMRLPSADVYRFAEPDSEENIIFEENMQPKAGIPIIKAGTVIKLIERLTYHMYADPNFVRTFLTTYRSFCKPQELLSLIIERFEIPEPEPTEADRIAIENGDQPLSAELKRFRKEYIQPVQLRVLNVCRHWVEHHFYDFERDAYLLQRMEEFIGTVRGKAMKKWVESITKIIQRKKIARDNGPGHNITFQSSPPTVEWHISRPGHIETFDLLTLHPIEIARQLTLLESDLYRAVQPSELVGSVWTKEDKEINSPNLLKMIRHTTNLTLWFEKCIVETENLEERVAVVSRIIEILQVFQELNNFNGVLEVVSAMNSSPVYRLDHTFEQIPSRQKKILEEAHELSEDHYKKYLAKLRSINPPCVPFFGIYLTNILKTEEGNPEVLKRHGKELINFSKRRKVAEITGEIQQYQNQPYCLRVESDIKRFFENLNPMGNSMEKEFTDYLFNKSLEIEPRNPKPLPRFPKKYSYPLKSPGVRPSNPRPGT

## COc1cc2nc(C)nc(N[C@H](C)c3cccc(C(F)(F)C(C)(C)O)c3F)c2cc1OC(=O)N1CCN(C)C[C@@H]1C [Hydrochloride of compound 28]
[1]
  IC50: 14.5 nM
[2]
  Cmax: 4.59 µM
  bioavailability: 98.8%
  clearance: 36.7 mL/min/kg
  half-life: 6.01 h
  Vd: 11.5 L/kg
  AUC(0-t): 37.5 µM·h
p-ERK in DLD-1 cells
  IC50: 91.5 nM

## COc1cc2nc(C)nc(N[C@H](C)c3cc(N)cc(C(F)(F)F)c3)c2cc1OC(=O)N1CCN(C)CC1 [Compound 2]
[1]
  IC50: 110 nM
p-ERK in DLD-1 cells
  IC50: 122 nM

## COc1cc2nc(C)nc(N[C@H](C)c3cc(N)cc(C(F)(F)F)c3)c2cc1OC(=O)N1CCN2CCCC2C1 (stereo partly drawn) [Compound 10]
p-ERK in DLD-1 cells
  IC50: 86.2 nM

## COc1cc2nc(C)nc(N[C@H](C)c3cc(N)cc(C(F)(F)F)c3)c2cc1OC(=O)N1CCC2(CC1)CO[C@H](C)[C@@H]2N [Compound 11]
[1]
  IC50: 78.6 nM

## COc1cc2nc(C)nc(N[C@H](C)c3cc(N)cc(C(F)(F)F)c3)c2cc1OC(=O)N1CCNCC1 [Hydrochloride of compound 6]
[1]
  IC50: 87.6 nM

## COc1cc2nc(C)nc(N[C@H](C)c3cccc(C(F)(F)CO)c3)c2cc1OC(=O)N1CCN(C)CC1C (stereo partly drawn) [Hydrochloride of compound 16]
[1]
  IC50: 59.6 nM
p-ERK in DLD-1 cells
  IC50: 222 nM

## COc1cc2nc(C)nc(N[C@H](C)c3cc(N)cc(C(F)(F)F)c3F)c2cc1OC(=O)N1CCN(C)CC1C (stereo partly drawn) [Compound 27]
[1]
  IC50: 40.6 nM
p-ERK in DLD-1 cells
  IC50: 112 nM

## COc1cc2nc(C)nc(N[C@H](C)c3cccc(C(F)(F)C(C)(C)O)c3F)c2cc1OC(=O)N1CCN(C)C[C@H]1C [Hydrochloride of compound 29]
[1]
  IC50: 14.7 nM
[2]
  Cmax: 10.9 µM
  bioavailability: 91.2%
  clearance: 18.7 mL/min/kg
  half-life: 3.46 h
  Vd: 4.15 L/kg
  AUC(0-t): 74.6 µM·h
p-ERK in DLD-1 cells
  IC50: 135 nM

## CCN1CCN(C(=O)Oc2cc3c(N[C@H](C)c4cc(N)cc(C(F)(F)F)c4)nc(C)nc3cc2OC)CC1 [Hydrochloride of compound 5]
[1]
  IC50: 77.3 nM
p-ERK in DLD-1 cells
  IC50: 219 nM

## COc1cc2nc(C)nc(N[C@H](C)c3cccc(C(F)F)c3F)c2cc1OC(=O)N1CCN(C2COC2)CC12CC2 [Compound 26]
[1]
  IC50: 65.9 nM
p-ERK in DLD-1 cells
  IC50: 283 nM

## COc1cc2nc(C)nc(N[C@H](C)c3cccc(C(F)(F)C(C)(C)O)c3F)c2cc1OC(=O)N1CCN(C2COC2)CC12CC2 [Compound 24]
[1]
  IC50: 47.9 nM

## COc1cc2nc(C)nc(N[C@H](C)c3cccc(C(F)(F)C4CCCO4)c3F)c2cc1OC(=O)N1CCN(C)CC1C (stereo partly drawn) [Hydrochloride of compound 15]
[1]
  IC50: 149 nM

## COc1cc2nc(C)nc(N[C@H](C)c3cccc(C(F)(F)CO)c3F)c2cc1OC(=O)N1CCN(C)CC1C (stereo partly drawn) [Hydrochloride of compound 18]
[1]
  IC50: 23.4 nM
p-ERK in DLD-1 cells
  IC50: 243 nM

## COc1cc2nc(C)nc(N[C@H](C)c3cc(N)cc(C(F)(F)F)c3)c2cc1OC(=O)N1CCCN(C)CC1C (stereo partly drawn) [Compound 13]
[1]
  IC50: 70.4 nM
p-ERK in DLD-1 cells
  IC50: 282 nM

## COc1cc2nc(C)nc(N[C@H](C)c3cccc(C(F)F)c3F)c2cc1OC(=O)N1CCN(C)CC1C (stereo partly drawn) [Hydrochloride of compound 19]
[1]
  IC50: 105 nM

## COc1cc2nc(C)nc(N[C@H](C)c3cc(N)cc(C(F)(F)F)c3)c2cc1OC(=O)N1CCN(C2COC2)CC1 [Compound 9]
[1]
  IC50: 83.6 nM

## COc1cc2nc(C)nc(N[C@H](C)c3cc(N)cc(C(F)(F)F)c3)c2cc1OC(=O)N1CCC(N(C)C)CC1 [Hydrochloride of compound 8]
[1]
  IC50: 73.7 nM

## COc1cc2nc(C)nc(N[C@H](C)c3cccc(C(F)F)c3F)c2cc1OC(=O)N1CCNCC12CC2 [Compound 25]
[1]
  IC50: 86.1 nM

## COc1cc2nc(C)nc(N[C@H](C)c3cc(N)cc(C(F)(F)F)c3)c2cc1OC(=O)N1CCN(C)CC1C (stereo partly drawn) [Hydrochloride of compound 4]
[1]
  IC50: 71.1 nM
p-ERK in DLD-1 cells
  IC50: 113 nM

## COc1cc2nc(C)nc(N[C@H](C)c3cc(N)cc(C(F)(F)F)c3)c2cc1OC(=O)N1CCC2(CCOC2)CC1 [Compound 7]
[1]
  IC50: 92.8 nM
